# “Also recorded” adds a separate entry of the source.
# Experiments:
# [1] = test system: healthy human subjects; test: Single and multiple dose studies in healthy human subjects; format: in vivo; conditions: for Subjects with decreased total testosterone levels: multiple doses
# Description: There were observations of elevated ALT levels above the upper limit of normal in four subjects in the multiple dose study (3 subjects in the 1000 mg group and 1 subject in the 600 mg group). The highest single observed value of ALT was 129 IU/L or 2.6 times the upper limit of normal. Aspartate aminotransferase levels were also elevated in this subject to 1.9 times the upper limit of normal.
# Serum total testosterone levels were assessed throughout the multiple doses study. Total testosterone levels were decreased in 100% (10/10) of the subjects in the 600 mg dose group and 90% (9/10) of the subjects in the […] dose group. The levels of total testosterone were decreased to below the lower limit of normal in 40% (4/10) of the subjects in the 600 mg dose group and 50% (5/10) of the subjects in the 1000 mg dose group.
# [2] = test system: human males; test: Multiple dose study in human males (100, 300, 600, 1000 mg; days 1-11); format: in vivo
# [3] = test system: human platelets; test: In vitro human platelet aggregation assay (thrombin-induced)
# [4] = test system: castrated male cynomolgus monkeys; test: Compound IV studies on castrated monkeys, 90 days (Example 22); format: in vivo, cynomolgus monkey
# [5] = molecular target: T1, androgen receptor (AR) (Rattus norvegicus, UniProt P15207); test: Nuclear receptor cross-reactivity transcriptional activation assay; format: cell-based
# T1 construct: expressed in transfected cells
# Source text: (§1) Compound IV was screened for cross-reactivity against rat isoforms of glucocorticoid receptor (GR), mineralocorticoids receptor (MR), progesterone receptor (PR), androgen receptor (AR) and human isoforms of farnesoid X receptor (FXR), liver X receptor (LXR), peroxisome proliferator-activated receptors (PPAR-α and PPAR-γ), and retinoid X receptor (RXR-α) in both agonist and antagonist modes in transcriptional activation assays.
# [6] = molecular target: T2, farnesoid X receptor (FXR) (Homo sapiens, UniProt Q96RI1); test: as above; format: cell-based; conditions: agonist and antagonist modes
# T2 construct: expressed in transfected cells
# Source text: as §1
# [7] = molecular target: T3, progesterone receptor (PR) (Rattus norvegicus, UniProt Q63449); test: as above; format: cell-based; conditions: agonist and antagonist modes
# T3 construct: expressed in transfected cells
# Source text: as §1
# [8] = molecular target: T4, glucocorticoid receptor (GR) (Rattus norvegicus, UniProt P06536); test: as above; format: cell-based
# T4 construct: expressed in transfected cells
# T4 sequence (P06536 1-795): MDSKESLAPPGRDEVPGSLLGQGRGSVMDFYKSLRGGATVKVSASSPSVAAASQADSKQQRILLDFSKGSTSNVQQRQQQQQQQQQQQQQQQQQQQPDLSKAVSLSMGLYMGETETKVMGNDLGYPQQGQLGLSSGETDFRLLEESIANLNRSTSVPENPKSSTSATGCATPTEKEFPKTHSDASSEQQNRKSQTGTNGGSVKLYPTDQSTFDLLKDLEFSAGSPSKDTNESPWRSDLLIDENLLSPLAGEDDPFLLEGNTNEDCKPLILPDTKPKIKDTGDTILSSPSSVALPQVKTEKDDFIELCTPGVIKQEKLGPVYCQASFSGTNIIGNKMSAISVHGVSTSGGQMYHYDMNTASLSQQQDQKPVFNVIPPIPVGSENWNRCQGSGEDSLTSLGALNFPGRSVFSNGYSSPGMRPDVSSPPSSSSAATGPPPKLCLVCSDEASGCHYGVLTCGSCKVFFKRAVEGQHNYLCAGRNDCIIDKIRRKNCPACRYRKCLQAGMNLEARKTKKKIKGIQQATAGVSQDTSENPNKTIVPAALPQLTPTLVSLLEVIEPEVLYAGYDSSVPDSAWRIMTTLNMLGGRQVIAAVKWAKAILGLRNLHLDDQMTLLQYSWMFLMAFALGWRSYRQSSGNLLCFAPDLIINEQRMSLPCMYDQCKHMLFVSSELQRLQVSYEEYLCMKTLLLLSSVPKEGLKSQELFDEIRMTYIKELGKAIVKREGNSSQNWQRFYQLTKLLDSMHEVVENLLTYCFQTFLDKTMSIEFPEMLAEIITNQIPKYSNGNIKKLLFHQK
# Source text: as §1
# [9] = molecular target: T5, mineralocorticoids receptor (MR) (Rattus norvegicus, UniProt P22199); test: as above; format: cell-based; conditions: agonist and antagonist modes
# T5 construct: expressed in transfected cells
# Source text: as §1
# [10] = test system: intact and ORX rats; test: Prostate size in intact and ORX rats, Compound IV versus DES; format: in vivo, rat; conditions: rats (FIG. 11)
# T1 sequence (P15207 whole entry S389L): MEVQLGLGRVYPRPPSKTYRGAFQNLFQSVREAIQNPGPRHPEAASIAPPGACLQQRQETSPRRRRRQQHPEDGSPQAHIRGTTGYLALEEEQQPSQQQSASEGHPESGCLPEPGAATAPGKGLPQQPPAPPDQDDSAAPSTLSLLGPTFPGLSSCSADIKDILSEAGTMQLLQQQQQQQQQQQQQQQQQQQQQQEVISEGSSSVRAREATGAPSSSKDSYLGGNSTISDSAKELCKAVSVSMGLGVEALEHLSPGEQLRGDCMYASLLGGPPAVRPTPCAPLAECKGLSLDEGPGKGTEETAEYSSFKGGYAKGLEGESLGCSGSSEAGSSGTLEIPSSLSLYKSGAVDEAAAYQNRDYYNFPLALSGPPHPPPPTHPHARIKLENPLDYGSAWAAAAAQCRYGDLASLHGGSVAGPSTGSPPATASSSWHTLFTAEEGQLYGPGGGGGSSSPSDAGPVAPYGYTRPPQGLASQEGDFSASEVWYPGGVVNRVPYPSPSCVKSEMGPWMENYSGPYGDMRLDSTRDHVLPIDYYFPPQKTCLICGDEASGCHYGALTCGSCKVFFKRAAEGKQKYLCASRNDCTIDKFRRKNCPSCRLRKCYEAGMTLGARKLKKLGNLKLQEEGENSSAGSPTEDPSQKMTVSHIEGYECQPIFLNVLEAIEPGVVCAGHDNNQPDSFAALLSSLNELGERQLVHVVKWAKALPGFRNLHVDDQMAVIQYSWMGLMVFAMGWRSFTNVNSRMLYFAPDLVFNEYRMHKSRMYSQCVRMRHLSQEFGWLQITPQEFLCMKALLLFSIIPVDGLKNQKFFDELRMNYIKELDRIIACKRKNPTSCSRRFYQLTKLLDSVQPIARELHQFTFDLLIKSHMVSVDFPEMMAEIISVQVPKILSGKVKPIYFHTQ
# T3 sequence (Q63449 whole entry): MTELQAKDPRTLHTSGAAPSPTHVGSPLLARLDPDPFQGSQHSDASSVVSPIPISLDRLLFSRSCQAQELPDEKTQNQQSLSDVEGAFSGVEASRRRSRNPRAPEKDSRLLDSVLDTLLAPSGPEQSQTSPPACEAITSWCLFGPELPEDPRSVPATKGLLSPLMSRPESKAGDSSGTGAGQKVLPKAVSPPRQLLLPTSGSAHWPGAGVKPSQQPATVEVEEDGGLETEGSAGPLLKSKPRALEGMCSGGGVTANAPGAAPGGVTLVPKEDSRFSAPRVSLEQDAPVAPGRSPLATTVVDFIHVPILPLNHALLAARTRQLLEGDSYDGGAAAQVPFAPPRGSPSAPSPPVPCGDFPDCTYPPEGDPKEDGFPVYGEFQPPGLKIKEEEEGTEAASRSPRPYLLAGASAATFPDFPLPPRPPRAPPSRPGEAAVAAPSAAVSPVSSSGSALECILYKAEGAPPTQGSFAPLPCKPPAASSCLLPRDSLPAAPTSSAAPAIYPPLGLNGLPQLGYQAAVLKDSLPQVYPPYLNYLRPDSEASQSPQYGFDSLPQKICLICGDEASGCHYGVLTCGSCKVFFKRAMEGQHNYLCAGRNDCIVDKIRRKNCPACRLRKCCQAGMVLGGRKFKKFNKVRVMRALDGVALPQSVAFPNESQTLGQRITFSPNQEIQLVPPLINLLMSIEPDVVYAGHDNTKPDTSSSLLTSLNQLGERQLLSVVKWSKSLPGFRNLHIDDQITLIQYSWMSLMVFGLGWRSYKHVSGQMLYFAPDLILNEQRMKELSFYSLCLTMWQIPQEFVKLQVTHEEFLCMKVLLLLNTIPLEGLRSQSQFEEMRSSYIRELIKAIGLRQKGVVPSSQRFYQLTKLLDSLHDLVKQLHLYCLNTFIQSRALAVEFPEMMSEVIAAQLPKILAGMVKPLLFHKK
# T5 sequence (P22199 whole entry): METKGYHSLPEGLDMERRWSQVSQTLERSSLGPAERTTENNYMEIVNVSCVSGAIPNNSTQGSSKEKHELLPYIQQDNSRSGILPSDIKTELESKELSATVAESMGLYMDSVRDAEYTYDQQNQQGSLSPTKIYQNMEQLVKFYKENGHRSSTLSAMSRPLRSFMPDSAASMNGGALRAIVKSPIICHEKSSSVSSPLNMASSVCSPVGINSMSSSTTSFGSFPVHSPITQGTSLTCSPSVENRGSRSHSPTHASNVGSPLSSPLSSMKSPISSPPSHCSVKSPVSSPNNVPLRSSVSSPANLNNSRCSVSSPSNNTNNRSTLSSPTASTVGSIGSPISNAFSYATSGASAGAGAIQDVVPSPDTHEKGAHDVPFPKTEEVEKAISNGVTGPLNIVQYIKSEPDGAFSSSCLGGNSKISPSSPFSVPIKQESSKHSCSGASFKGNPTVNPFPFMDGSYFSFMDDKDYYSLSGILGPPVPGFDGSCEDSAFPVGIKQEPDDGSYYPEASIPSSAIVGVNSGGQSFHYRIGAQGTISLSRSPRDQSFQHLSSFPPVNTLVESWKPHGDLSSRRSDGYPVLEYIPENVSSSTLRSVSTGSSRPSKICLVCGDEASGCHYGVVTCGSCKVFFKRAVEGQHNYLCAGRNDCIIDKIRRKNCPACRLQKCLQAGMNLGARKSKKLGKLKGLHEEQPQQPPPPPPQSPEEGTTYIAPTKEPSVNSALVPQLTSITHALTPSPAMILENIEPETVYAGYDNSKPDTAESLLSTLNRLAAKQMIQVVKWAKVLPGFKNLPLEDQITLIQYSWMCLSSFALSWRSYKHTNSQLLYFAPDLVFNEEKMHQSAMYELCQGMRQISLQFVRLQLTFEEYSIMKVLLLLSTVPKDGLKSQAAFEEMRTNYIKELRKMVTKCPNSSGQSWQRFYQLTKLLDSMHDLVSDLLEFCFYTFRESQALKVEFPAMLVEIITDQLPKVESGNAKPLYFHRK
# T2 sequence (Q96RI1 whole entry): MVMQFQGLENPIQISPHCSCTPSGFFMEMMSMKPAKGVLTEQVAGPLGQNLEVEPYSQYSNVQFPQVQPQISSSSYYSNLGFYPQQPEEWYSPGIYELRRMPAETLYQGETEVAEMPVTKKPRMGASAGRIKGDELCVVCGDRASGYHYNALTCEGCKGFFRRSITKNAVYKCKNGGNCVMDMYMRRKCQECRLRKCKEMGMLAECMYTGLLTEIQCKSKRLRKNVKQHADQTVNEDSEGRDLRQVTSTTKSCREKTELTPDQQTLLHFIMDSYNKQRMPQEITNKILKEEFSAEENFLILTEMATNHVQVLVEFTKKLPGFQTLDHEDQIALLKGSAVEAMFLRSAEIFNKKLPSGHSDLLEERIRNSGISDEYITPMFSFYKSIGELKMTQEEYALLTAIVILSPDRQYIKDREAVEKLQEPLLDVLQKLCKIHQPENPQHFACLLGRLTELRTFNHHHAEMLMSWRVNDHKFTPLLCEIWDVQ
compound,measurement,setting,value
"O=C(c1ccc(O)c(F)c1)N(c1ccc(O)cc1)c1ccc(F)cc1 [Compound IV, 3-fluoro-N-(4-fluorophenyl)-4-hydroxy-N-(4-hydroxyphenyl)benzamide]",Subjects with total testosterone below the lower limit of normal,[1]; 600 mg dose group,40%
same,Subjects with decreased total testosterone levels,[1]; 600 mg dose group,100%
same,Subjects with decreased total testosterone levels,[1]; 997 mg dose group,90%
same,Subjects with total testosterone below the lower limit of normal,[1]; 1000 mg dose group,50%
same,Time for total testosterone to return to normal after discontinuation,[1]; all subjects,≤ 6 days
same,Elevations in total bilirubin,[1]; any subject in the trial,no observations of elevations
same,Well tolerated single doses,[1]; healthy human subjects,up to 1247 mg
same,Well tolerated multiple doses,"[1]; healthy human subjects, up to 10 days",up to 997 mg
same,Aspartate aminotransferase elevation in the same subject,[1]; multiple dose study,1.9 times the upper limit of normal
same,Subjects with ALT above the upper limit of normal,"[1]; multiple dose study, 600 mg group",1 subject
same,Subjects with ALT above the upper limit of normal,"[1]; multiple dose study, 1000 mg group",3 subjects
same,Subjects with total testosterone below 1.73 nmol/L (castrate range),[1]; multiple doses study,no subject
same,Change of PSA level,[2]; 10 mg,No changes noted
same,Change of PSA level,[2]; 30 mg,No changes noted
same,Decrease of PSA level,[2]; 100 mg,9.2%
same,Decrease of free testosterone level,[2]; 100 mg,17.0%
same,Procoagulatory activity compared with DES,[3],much lower procoagulatory activity than DES
same,Serum PSA levels in castrate animals,"[4]; 1, 10, 100 mg/kg/day oral (groups 4, 5 and 6), within four weeks",significantly suppressed
same,Mean prostate weights at necropsy,[4]; after thirteen weeks of treatment,significantly reduces
same,Testosterone flare,[4]; castrated animals treated with Compound IV,not observed
same,Cross-reaction with androgen receptor (AR),[5]; FIG. 12B,does not; also recorded: did not
same,Agonist or antagonist activity at AR,[5]; agonist and antagonist modes,did not display any agonist or antagonist activity
same,Agonist or antagonist activity at FXR,[6],did not display any agonist or antagonist activity
same,Agonist or antagonist activity at PR,[7],did not display any agonist or antagonist activity
same,Cross-reaction with glucocorticoid receptor (GR),[8]; FIG. 12A,does not; also recorded: did not
same,Agonist or antagonist activity at GR,[8]; agonist and antagonist modes,did not display any agonist or antagonist activity
same,Agonist or antagonist activity at MR,[9],did not display any agonist or antagonist activity
same,Reduction of prostate size,[10],as effective as DES
